Laboratory results published in US4590189A, “Condensed pyrrolinone derivatives, their production and use” (Takeda Chemical Industries, Ltd., priority 1982, dated 1986).

Each compound was assayed against benzodiazepine receptor (assay: Specific benzodiazepine receptor binding: displacement of [^3 H] diazepam in crude mitochondrial fractions of rat cerebral cortex). Settings: [^3 H] diazepam 2 nM, pH 7.4, 4° C., 20 minutes; read-out: IC50, effect on specific binding of [^3 H] diazepam.
Design: species or system rat (male SD strain)
Procedure: The pharmacological properties of the compounds (I) of this invention were investigated by determining the substituting power thereof for radioactive diazepam from a benzodiazepine receptor.
Specific benzodiazepine receptor binding was carried out according to the method of C. Braestrup and R. F. Squiras (European J. Pharmacol., Vol. 48, 263-270, 1978). Thus, crude mitochondrial fractions obtained from the cerebral cortex of male SD strain rats 9 to 10 weeks of age were suspended in 50 mM Tris-HCl buffer (pH 7.4) and incubated with one of a series of concentrations of the test compound and [^3 H] diazepam (final concentration 2 nM) at 4° C. for 20 minutes. Then, the suspension was filtered through a Whatman GF/B glass fiber filter and the radioactivity of [^3 H] diazepam on the filter was measured by the liquid scintillation method. The concentration of the test drug which caused a 50% inhibition of [^3 H] diazepam specific binding was taken as the IC50 value.
For `O=C(CC1c2ccccc2C(=O)N1c1ccc(Cl)cc1)N1CCCCC1` (stereo not drawn), the IC50 was 8.86 nM.
With `CN(Cc1ccccc1)C(=O)CC1c2ccccc2C(=O)N1c1ccccc1` (stereo not drawn) the IC50 was 19.5 nM.
`COc1ccc(N2C(=O)c3ccc(Cl)cc3C2CC(=O)N2CCN(C)CC2)cc1` (stereo not drawn) gave an IC50 of 1.99 nM.
`COc1ccc(N2C(=O)c3ccc(Cl)cc3C2CC(=O)N2CCCCC2)cc1` (stereo not drawn) showed an IC50 of 0.794 nM.
With `COc1ccc(N2C(=O)c3ccccc3C2CC(=O)N2CCCCC2)cc1` (stereo not drawn) the IC50 was 4.46 nM.
Work on `O=C(CC1c2ccccc2C(=O)N1c1ccc2ccc(Cl)nc2n1)N1CCCCC1` (stereo not drawn) yielded an IC50 of 0.645 nM.
`COc1ccc(N2C(=O)c3ccc(N)cc3C2CC(=O)N2CCCCC2)cc1` (stereo not drawn) showed an IC50 of 3.8 nM.
`COc1ccc(N2C(=O)c3ccccc3C2CC(=O)N2CCSC2)cc1` (stereo not drawn) gave an IC50 of 4.9 nM.
`O=C(CC1C2=C(SCCS2)C(=O)N1c1ccc(Cl)cc1)N1CCCCC1` (stereo not drawn) was tested, and the IC50 was 9.55 nM.
For `O=C(CC1C2=C(SCCS2)C(=O)N1c1ccc(Cl)cc1)N1CCCCCC1` (stereo not drawn), the IC50 was 5.75 nM.
`COc1ccc(N2C(=O)C3=C(SCCS3)C2CC(=O)N2CCCCC2)cc1` (stereo not drawn) gave an IC50 of 1.05 nM.
`O=C(CC1C2=C(SCCS2)C(=O)N1c1ccccc1)N1CCCCC1` (stereo not drawn) gave an IC50 of 7.58 nM.
